Earlier results, collected in US9820994B2, “Cerclage pessary containing progesterone of prolonged, sustained, and continuous release useful for prevention of preterm birth” (Laboratorios Andromaco S.A., priority 2014, dated 2017).

Tested on: women at risk of preterm birth (short cervix / history of preterm birth)

CC(=O)[C@H]1CC[C@H]2[C@@H]3CCC4=CC(=O)CC[C@]4(C)[C@H]3CC[C@]12C [progesterone]
Reduction in rate of spontaneous preterm birth before 33-34 weeks (250 mg IM weekly, 200 mg daily vaginal suppositories, 90 mg vaginal gel): approximately 40%
Rate of births before 34 weeks (vaginal progesterone group, singleton, previous preterm birth, cervical length less than 25 mm (Alfirevic et al., 2013)): ~30%
Reduction of the rate of spontaneous preterm birth before 33-34 weeks (vaginally administered, patients with short cervix): 40-45%
